In assay [1] the test system is chronic allergen exposure model of bronchial asthma in mice. The experiment in a line: Lung histopathology and morphological analyses, chronic Dp asthma model. In kind it is in vivo, mouse. As to the method: (§1) All mice were sensitized on days 0 and 7 by intraperitoneal injections of 10 μg of Dp dissolved in 500 μL saline and mixed with 1mg of Alum (Sigma-Aldrich Japan). Dp-sensitized mice were challenged intranasally with 10 μg (10 μL) Dp in 70 μL saline on alternate days, 3 days per week, from days 14 to 67. The mice were also treated intraperitoneally with IMD-4690 (10 mg/kg) (Dp/IMD group) or CMC alone (Dp/CMC group) at the same day with Dp challenge. As a control, mice were challenged with saline and given CMC during this period (control/CMC group) (Fig. 1A). Each experiment was performed using six mice per group.
The lung tissues were harvested, fixed in 10% formalin, and embedded in paraffin. Three-micrometer-thick sections were stained with Giemsa, Periodic acid-Schiff (PAS) or Azan Mallory.
Sections of lung tissue were stained immunohistochemically to detect α-smooth muscle actin (SMA), platelet endothelial cell adhesion molecule-1 (PECAM-1)/CD31. Mouse monoclonal anti-smooth muscle (1:800) (Thermo Fisher Scientific Inc., Fremont, CA, USA), or ready-to-use mouse monoclonal CD31 (GeneTex Inc., Irvine, CA, USA) was used as a primary antibody. For immunohistochemical staining, the VECTASTAIN ABC Kit (Vector Laboratories) and the Vector M.O.M. Immunodetection Kit (Vector Laboratories) were used according to the manufacturers’ protocols. Diaminobenzidine was used as a substrate for the immunoperoxidase reaction. Sections were lightly counterstained with hematoxylin and analyzed by bright-field microscopy.
An OLYMPUS BX61 microscope (Olympus, Tokyo, Japan) with Scion Image software was used for the morphological analysis. Eosinophils were counted according to a previously described method. The thickness of subepithelial fibrosis and smooth muscle layer were analyzed as follows. The area of subepithelial fibrosis (stained blue) and smooth muscle layer (α-SMA positive) around a bronchus was measured. The average thickness was determined by the area of the positive layer divided by the length of the internal circumference of the area. The mean values for thickness were calculated for 8–10 bronchi per left lung lobe.
To quantify the microvessel density, the number of CD31-positive blood vessels per field was counted in 5 random fields in each sample.

Assay [2] shares this test system. The experiment in a line: Serum IgE (ELISA), chronic Dp asthma model. The conditions noted are these: 10 mg/kg i.p., vs Dp/CMC mice. Format: in vivo, mouse. The protocol:
as §1
Protein concentrations were determined by the BCA method (Pierce, Rockford, IL, USA). Cytokines, growth factors, enzymes, and serum IgE were determined using commercial ELISA kits. […]
A general note: In an ELISA, binding on a coated surface is turned into a signal by an enzyme label.

The next assay addresses human PAI-1 (Homo sapiens, UniProt P05121). The experiment in a line: Direct tPA assay of PAI-1 activity (fluorescent substrate Pyr-Gly-Arg-MCA). The conditions noted are these: recombinant tPA and PAI-1, read-out: IC50 of human PAI-1 inhibition. In kind it is biochemical. As to the method:
Inhibitory effect of IMD-4690 on the activity of PAI-1 was measured by the direct tPA assay. Briefly, recombinant tPA and PAI-1 was mixed with IMD-4690, and then tPA substrate with fluorescent pigment (Pyr-Gly-Arg-MCA) was added in this mixture and incubated. The enzymatic activity was calculated by measuring the fluorescence. The inhibitory activity of IMD-4690 on other enzymes was measured with the similar method.

The text below walks through data of PMC4364779, “IMD-4690, a Novel Specific Inhibitor for Plasminogen Activator Inhibitor-1, Reduces Allergic Airway Remodeling in a Mouse Model of Chronic Asthma via Regulating Angiogenesis and Remodeling-Related Mediators” (PLoS ONE, 2015).

SMILES strings stand for the structures.

Chain of human PAI-1 (P05121 24-402): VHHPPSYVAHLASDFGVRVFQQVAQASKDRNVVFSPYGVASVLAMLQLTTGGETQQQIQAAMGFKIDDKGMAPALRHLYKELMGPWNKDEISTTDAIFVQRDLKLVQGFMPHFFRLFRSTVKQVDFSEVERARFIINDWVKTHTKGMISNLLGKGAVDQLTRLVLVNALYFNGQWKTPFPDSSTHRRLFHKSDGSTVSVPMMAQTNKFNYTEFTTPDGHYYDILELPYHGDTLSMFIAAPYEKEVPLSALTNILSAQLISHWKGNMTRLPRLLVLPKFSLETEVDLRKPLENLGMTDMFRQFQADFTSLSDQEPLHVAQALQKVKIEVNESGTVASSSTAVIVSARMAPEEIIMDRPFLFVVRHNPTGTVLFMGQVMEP

By IC50 is commonly meant the concentration that inhibits the measured activity by half. As to `CC(C)(C)c1ccc(Oc2cc(-c3ccc(OC(F)(F)F)cc3)ccc2OCC(=O)O)cc1` [IMD-4690, 2-[[3-(4-tert-Butylphenoxy)-4'-(trifluoromethoxy) [1,1'-biphenyl]-4-yl]oxy] acetic acid], the “Subepithelial thickness (subepithelial fibrosis)” value in assay [1] (Azan-Mallory sections, Dp/IMD mice 10 mg/kg i.p.) is “significantly decreased”. For the same molecule, in assay [1] (CD31 immunohistochemistry, 10 mg/kg i.p.), the “Vascular density (CD31-positive blood vessels)” value is “significantly decreased”. Further, the “Number of infiltrating eosinophils in the subepithelium” value in assay [1] (Giemsa-stained lung sections, 10 mg/kg i.p., vs Dp/CMC mice) is recorded as “significantly decreased”. Also, in assay [1] (PAS staining of lungs, 10 mg/kg i.p., vs Dp/CMC mice), the “Number of PAS-positive cells (mucous metaplasia)” value is recorded as “decreased”. For the same molecule, the “Subepithelial smooth muscle thickness” value in assay [1] (α-SMA immunohistochemistry, 10 mg/kg i.p.) was “significant reduction”. In assay [2], the “Serum IgE” value is recorded as “significantly decreased”. The IC50 on human PAI-1 came out at 1100 nM.
